Values quoted from earlier work, collected in patent publication US7407975B2, “Epothilone derivatives, method for producing same and their pharmaceutical use” (priority 1997, dated 2008).

System: P-glycoprotein-forming multiresistant tumor lines
Details: in comparison to taxol

SMILES | activity against P-glycoprotein-forming multiresistant tumor lines
C/C(=C\c1csc(C)n1)[C@@H]1C[C@@H]2O[C@@H]2CCC[C@H](C)[C@H](O)[C@@H](C)C(=O)C(C)(C)[C@@H](O)CC(=O)O1 [Epothilone A, epothilone A] | significantly higher activity
C/C(=C\c1csc(C)n1)[C@@H]1C[C@@H]2O[C@]2(C)CCC[C@H](C)[C@H](O)[C@@H](C)C(=O)C(C)(C)[C@@H](O)CC(=O)O1 [Epothilone B, epothilone B] | significantly higher activity
